Experimental data as given in patent US20150316552A1, “Human Notch Receptor Mutations and Their Use” (OncoMed Pharmaceuticals, Inc., priority 2011, published 2015).
“Also recorded” adds a separate entry of the source. Square brackets hold non-standard residues; d marks the D form. Peptide text beside a SMILES is read from it. * marks the point of attachment. Nle = CCCC[C@H](N)C(=O)O; Cbz = O=C(OCc1ccccc1)*

Assays:
OMP-B40 breast tumors = experiment: OMP-B40 breast tumor xenograft, tumor growth; type: in vivo, NOD/SCID mice; conditions: antibodies 15 mg/kg i.p. twice a week, Taxol 20 mg/kg i.p. once a week; FIG. 3B
Procedure: B40 p3 tumor cells were injected subcutaneously into the left flank of 6-7 week old female NOD/SCID mice (300,000 cells/mouse). Mice were monitored weekly and tumors were allowed to grow until they were approximately 140 mm^3 (78 days after injection). Mice were randomized into five treatment groups and treated with control antibody, or different doses (0.3 mg/kg, 1 mg/kg, 3 mg/kg, 10 mg/kg) of the OMP-52M51 humanized anti-NOTCH1 antibody. The antibodies were dosed i.p. twice a week. Tumor growth was monitored by caliper measurement once a week.
Dissociated OMP-B40 p3 tumor cells were re-suspended in injection media (PBS containing 100 ng/mL VEGF and 100 ng/mL bFGF and 0.5× matrigel) and injected subcutaneously into the left flank of 6-7 week old female NOD/SCID mice (300,000 cells/mouse). Mice were monitored weekly and tumors were allowed to grow until they were approximately 140 mm^3 (78 days after injection). Mice were randomized into four treatment groups (n=10 mice/group) and treated with control antibody, anti-NOTCH1 antibody OMP-52M51, taxol or a combination of OMP-52M51 with taxol. The antibodies were dosed i.p. twice a week at 15 mg/kg and Taxol was dosed i.p. once a week at 20 mg/kg. Tumor growth was monitored by caliper measurement once a week.
As described in Example 2, three hundred thousand OMP-B40 tumor cells were injected subcutaneously and allowed to grow to a mean volume of […] At that point, 78 days after study start, mice were randomized and treatment started. Mice received either 15 mg/kg control antibody or 15 mg/kg OMP-52M51 humanized antibody twice weekly, with or without 20 mg/kg paclitaxel once weekly, all administered by IP injection. Mean±SEM, n=10 animals per group.

[1] = system: Ras-transformed fibroblasts; conditions: cited from earlier work
OMP-B37 breast tumors = experiment: OMP-B37 breast tumor xenograft, tumor growth; type: in vivo, NOD/SCID mice
Procedure: Dissociated lineage depleted OMP-B37 p4 tumor cells were re-suspended in injection media (PBS and 0.5× matrigel) and injected subcutaneously into the right flank of 6-7 week old female NOD/SCID mice (27,000 cells/mouse). Mice were monitored weekly and tumors were allowed to grow until they were approximately 80 mm^3 (49 days after injection). Mice were randomized into two treatment groups (n=11 mice/group) and were dosed once a week with 15 mg/kg control antibody, or 20 mg/kg 59R5, an anti-NOTCH2/3 antibody (FIG. 5). Tumor growth was monitored by caliper measurement once a week.
(§1) Activity of anti-NOTCH2/3 in combination with Taxol in OMP-B37 breast tumor. The anti-NOTCH2/3 antibody 59R5, taxol, or a combination of 59R5 and taxol were administered to OMP-B37 xenograft mice. Initially, B37 p2 tumor cells were injected subcutaneously into the right flank of 6-7 week old female NOD/SCID mice. Mice were monitored weekly and tumors were allowed to grow until they were approximately 80 mm^3 Mice were then administered a control antibody, the 59R5 anti-NOTCH2/3 antibody, taxol or a combination of 59R5 anti-NOTCH2/3 antibody and taxol (FIG. 6). Tumor growth was monitored by caliper measurement once a week.

E-cadherin = E-cadherin expression in treated OMP-B37 tumors; type: in vivo, NOD/SCID mice; conditions: OMP-B37 xenograft; FIG. 6B
Procedure: as §1

OMP-C31 colon tumor = OMP-C31 colon tumor model, tumor growth; type: in vivo, Nod-Scid mice; conditions: 10 mg/kg IP weekly, p=0.0005; FIG. 15
Procedure: In order to test the effect of the 59R5 anti-NOTCH2/3 antibody on a tumor which harbors an activating mutation in NOTCH3, the OMP-C31 colon tumor model was utilized. 5,000 OMP-C31 colon tumor cells were injected sub-cutaneously in Nod-Scid mice. Dosing was initiated two days after tumor cell injection. Tumor bearing mice (n=10 group) were treated with either control antibody (1B7.11) or 59R5 anti-NOTCH2/3 antibody. Antibodies were dosed by IP injection at 10 mg/kg, weekly, for the duration of the experiment. Tumor volumes were measured on the indicated days. The data is plotted as the mean+SEM (FIG. 15).

NOTCH3.ICD = experiment: NOTCH3 ICD IHC of treated OMP-B37 breast tumors; type: in vivo, mice; conditions: OMP-B37 xenograft; FIG. 17; listed as OMP-59R5
Procedure: NOTCH3.ICD accumulation in OMP-B37 tumor cells comprising a NOTCH3 activating mutation following treatment with a NOTCH2/3 antagonist and/or chemotherapy was examined by IHC. Tumor samples were isolated from the OMP-B37 xenograft mice that were treated with OMP-59R5 anti-NOTCH2/3 antibody, taxol or a combination of OMP-59R5 and taxol as described in the second paragraph of Example 3 above. A NOTCH3 ICD (“N3.ICD”) rabbit monoclonal antibody was developed that binds to the cleavage site of NOTCH3 and detects activated NOTCH3 within the nucleus. NOTCH3 ICD IHC was performed on the tumor samples using the N3.ICD antibody and standard IHC protocols with antigen retrieval in Target Retrieval Solution pH 9 (DAKO), antibody incubation overnight at 4° C. and detection with peroxidase-based EnVision™+ polymer (DAKO) and DAB+ (DAKO). Statistical significance was determined by One Way ANOVA with Bonferroni adjustment.

medulloblastoma = conditions: cited from earlier work
T-ALL = conditions: O'Neil et al. 2006; cited from earlier work
[2] = system: melanoma and Kaposi sarcoma; conditions: Curry et al. 2005; cited from earlier work

CC(=O)O[C@H]1C(=O)[C@@]2(C)[C@H]([C@H](OC(=O)c3ccccc3)[C@]3(O)C[C@H](OC(=O)[C@H](O)[C@@H](NC(=O)c4ccccc4)c4ccccc4)C(C)=C1C3(C)C)[C@]1(OC(C)=O)CO[C@@H]1C[C@@H]2O [Taxol, paclitaxel, reference compound]
reduction in tumor volume versus control (OMP-B40 breast tumors): 57.3%

CCC(C)C(NC(=O)OCc1ccccc1)C(=O)NC(C=O)CC(C)C (stereo not drawn) [IL-X, cbz-IL-CHO] (Cbz-Ile-Leu-aldehyde; configuration not given here)
antineoplastic activity [1]: NOTCH1-dependent antineoplastic activity

59R5: anti-NOTCH2/3 antibody, ATCC PTA-10170; heavy chain variable region SEQ ID NO:30, light chain variable region SEQ ID NO:32
tumor volume reduction (OMP-B37 breast tumors; 20 mg/kg once a week, after 5 weeks of treatment, FIG. 5): 56.6% | tumor volume in xenografted animals (in words) (OMP-B37 breast tumors; 59R5, taxol or combination study, FIG. 6A): greatly decreased tumor volume | tumor volume compared to control antibody (in words) (OMP-B37 breast tumors; FIG. 5): greatly decreased tumor volume | expression of E-cadherin (E-cadherin): increases expression of E-cadherin | tumor growth relative to control antibody treated group (OMP-C31 colon tumor): inhibited OMP-C31 tumor growth | NOTCH3.ICD accumulation relative to PBS treated cells (NOTCH3.ICD): significantly inhibited NOTCH3.ICD accumulation; also recorded: blocks NOTCH3.ICD accumulation

C[C@H](NC(=O)Cc1cc(F)cc(F)c1)C(=O)N[C@H](C(=O)OC(C)(C)C)c1ccccc1 [DAPT, N—[N-(3,5-difluorophenacetyl)-L-alanyl]-S-phenylglycine t-butyl ester]
medulloblastoma growth (medulloblastoma): marked reduction in medulloblastoma growth | cell cycle arrest and apoptosis (T-ALL): induced G0-G1 cell cycle arrest and apoptosis

CCCC[C@@H](C=O)NC(=O)[C@H](CC(C)C)NC(=O)[C@H](CC(C)C)NC(=O)OCc1ccccc1 [z-Leu-leu-Nle-CHO] (Cbz-Leu-Leu-[Nle]-aldehyde)
tumor growth [2]: suppress tumor growth
